Measured values as given in US6391338B1, “System for rendering substantially non-dissoluble bio-affecting agents bio-available” (Biovail Technologies Ltd., priority 1995, dated 2002).

Test: Ibuprofen concentration in 0.1 N HCl by HPLC UV
Type: physicochemical
Settings: 1 g solid dispersion (=200 mg ibuprofen) or raw drug in 900 mL 0.1 N HCl, stirred at 100 rpm for 0.5 h
Procedure: (§1) Samples were taken and ibuprofen concentration was measured by HPLC UV.
as §1

## CC(C)Cc1ccc(C(C)C(=O)O)cc1 (stereo not shown) [ibuprofen]
  ibuprofen concentration: 0.030 µg/mL
